For the test, the system named is acetylcholinesterase. Format: in vivo, rat. Particulars: Trials C, D; 0.030 mg/Kg dose 10 min prior to tracer; FIG. 11, FIG. 12 vs FIG. 8.

`CCOP(=O)(OCC)Oc1ccc([N+](=O)[O-])cc1` [paraoxon]: the “reduction of tracer [^18F]-6 SUV radioactivity signals across all brain ROIs” value was “significant reduction of SUV radioactivity signals”.

The values are drawn from patent publication US20170197996A1, “Cholinesterase Inhibitors” (priority 2012, published 2017).
